Measurements reported in patent publication US11248234B2, “Herbicide-resistant hydroxyphenylpyruvate dioxygenases” (BASF SE, priority 2015, dated 2022).
Entries after “also recorded” stand apart in the source; their conditions may differ.

Columns and labels:
[1] = biological target: T1, Arabidopsis HPPD (Seq ID: 42) (Arabidopsis thaliana, UniProt P93836); experiment: In vitro HPPD activity assay (homogentisic acid by HPLC); assay type: biochemical; details: benchmark enzyme; normalized on Arabidopsis wild-type HPPD
T1 construct: His6; made in house; host or cells: E. coli BL21 (DE3)
T1 sequence (P93836 1-445): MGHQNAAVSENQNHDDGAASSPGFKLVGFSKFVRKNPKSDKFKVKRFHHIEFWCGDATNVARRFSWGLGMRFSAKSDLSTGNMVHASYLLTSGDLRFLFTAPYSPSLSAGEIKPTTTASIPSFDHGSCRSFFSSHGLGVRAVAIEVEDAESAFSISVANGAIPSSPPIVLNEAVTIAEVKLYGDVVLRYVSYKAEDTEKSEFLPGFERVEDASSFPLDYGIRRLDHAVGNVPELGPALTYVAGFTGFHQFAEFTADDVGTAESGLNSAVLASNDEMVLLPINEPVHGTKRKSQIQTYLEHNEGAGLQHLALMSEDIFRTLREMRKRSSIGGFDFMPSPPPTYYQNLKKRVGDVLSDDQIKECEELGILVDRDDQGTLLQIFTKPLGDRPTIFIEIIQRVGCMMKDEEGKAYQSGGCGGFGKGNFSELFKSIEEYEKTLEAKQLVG
Method: (§1) HPPD produces homogentisic acid and CO2 from 4-hydroxyphenylpyruvate (4-HPP) and O2. The activity assay for HPPD is based on the analysis of homogentisic acid by reversed phase HPLC.
(§2) The assay mixture can contain 150 mM potassium phosphate buffer pH 7.0, 50 mM L-ascorbic acid, 100 μM Catalase (Sigma-Aldrich), 1 μM FeSO4 and 0.2 units of purified mutated HPPD enzyme in a total volume of 505 μl. 1 unit is defined as the amount of enzyme that is required to produce 1 nmol of HGA per minute at 20° C.
(§3) After a preincubation of 30 min the reaction is started by adding 4-HPP to a final concentration of 0.05 mM. The reaction is allowed to proceed for 45 min at room temperature. The reaction is stopped by the addition of 50 μl of 4.5 M phosphoric acid. The sample is filtered using a […] pore size PVDF filtration device.
(§4) 5 μl of the cleared sample is analyzed on an UPLC HSS T3 column (particle size 1.8 μm, dimensions 2.1×50 mm; Waters) by isocratic elution using 90% 20 mM NaH2PO4 pH 2.2, 10% methanol (v/v).
(§5) HGA is detected electrochemically at 750 mV (mode: DC; polarity: positive) and quantified by integrating peak areas (Empower software; Waters).
Inhibitors are dissolved in DMSO (dimethylsulfoxide) to a concentration of 0.5 mM. From this stock solution serial five-fold dilutions are prepared in DMSO, which are used in the assay. The respective inhibitor solution accounts for 1% of the assay volume. […] Activities are normalized by setting the uninhibited enzyme activity to 100%. IC50 values are calculated using non-linear regression.
Using methods which are described in the above examples or well known in the art, purified, recombinant mutated HPPD enzymes are characterized with respect to their kinetic properties and sensitivity towards HPPD inhibiting herbicides. Apparent michaelis constants (Km) and maximal reaction velocities (Vmax) are calculated by non-linear regression with the software GraphPad Prism 5 (GraphPad Software, La Jolla, USA) using a substrate inhibition model. […] Weighted means (by standard error) of Km and IC50 values are calculated from at least three independent experiments.
(§6) Field performance of the HPPD enzyme, which is used as a herbicide tolerance trait may depend not only on its lack of sensitivity towards HPPD inhibiting herbicides but also on its activity. To assess the potential performance of a herbicide tolerance trait a tolerance index (TI) is calculated using the following formula: […]
(§7) Easy comparison and ranking of each trait is enabled by normalizing tolerance indexes on Arabidopsis wild-type HPPD.

[2] = biological target: Scenedesmus HPPD (Seq ID: 2) (Tetradesmus obliquus, UniProt A0A383WMN4, N195D); experiment: In vitro HPPD activity assay; assay type: biochemical; details: normalized on Arabidopsis wild-type HPPD (SEQ ID NO:42)
Method: as §1, §2, §3, §4, §5
(§8) Inhibitors are dissolved in DMSO (dimethylsulfoxide) to a concentration of 0.5 mM. From this stock solution serial five-fold dilutions are prepared in DMSO, which are used in the assay. The respective inhibitor solution accounts for 1% of the assay volume. Thus, final inhibitor concentrations range from 5 μM to 320 pM, respectively. Activities are normalized by setting the uninhibited enzyme activity to 100%. IC50 values are calculated using non-linear regression.
(§9) Using methods which are described in the above examples or well known in the art, purified, recombinant mutated HPPD enzymes are characterized with respect to their kinetic properties and sensitivity towards HPPD inhibiting herbicides. Apparent michaelis constants (Km) and maximal reaction velocities (Vmax) are calculated by non-linear regression with the software GraphPad Prism 5 (GraphPad Software, La Jolla, USA) using a substrate inhibition model. Apparent kcat values are calculated from Vmax assuming 100% purity of the enzyme preparation. Weighted means (by standard error) of Km and IC50 values are calculated from at least three independent experiments. The Cheng-Prusoff equation for competitive inhibition (Cheng, Y. C.; Prusoff, W. H. Biochem Pharmacol 1973, 22, 3099-3108) is used to calculate dissociation constants (Ki).
as §6, §7

[3] = biological target: Scenedesmus Short HPPD (Seq ID: 4) (Tetradesmus obliquus, UniProt A0A383WMN4, DEL398-433/N195D); experiment: In vitro HPPD activity assay; assay type: biochemical; details: normalized on Arabidopsis wild-type HPPD (SEQ ID NO:42)
Method: as §1, §2, §3, §4, §5, §8, §9, §6, §7

[4] = test system: SoHPPD A318P, A319P (short); experiment: In vitro HPPD activity assay; assay type: biochemical, Scenedesmus obliquus; details: normalized on Arabidopsis wild-type HPPD (SEQ ID NO:42)
Method: as §1, §2, §3, §4, §5, §8, §9, §6, §7

[5] = test system: SoHPPD A318R, L350M (short); experiment: In vitro HPPD activity assay; assay type: biochemical, Scenedesmus obliquus; details: normalized on Arabidopsis wild-type HPPD (SEQ ID NO:42)
Method: as §1, §2, §3, §4, §5, §8, §9, §6, §7

SoHPPD A318R, L350M = experiment: In vitro HPPD activity assay; assay type: biochemical, Scenedesmus obliquus; details: normalized on Arabidopsis wild-type HPPD (SEQ ID NO:42)
Method: as §1, §2, §3, §4, §5, §8, §9, §6, §7

SoHPPD E345Q (short) = experiment: In vitro HPPD activity assay; assay type: biochemical, Scenedesmus obliquus; details: normalized on Arabidopsis wild-type HPPD (SEQ ID NO:42)
Method: as §1, §2, §3, §4, §5, §8, §9, §6, §7

SoHPPD E379Q (short) = experiment: In vitro HPPD activity assay; assay type: biochemical, Scenedesmus obliquus; details: normalized on Arabidopsis wild-type HPPD (SEQ ID NO:42)
Method: as §1, §2, §3, §4, §5, §8, §9, §6, §7

SoHPPD F363I (short) = experiment: In vitro HPPD activity assay; assay type: biochemical, Scenedesmus obliquus; details: normalized on Arabidopsis wild-type HPPD (SEQ ID NO:42)
Method: as §1, §2, §3, §4, §5, §8, §9, §6, §7

SoHPPD F363I = experiment: In vitro HPPD activity assay; assay type: biochemical, Scenedesmus obliquus; details: normalized on Arabidopsis wild-type HPPD (SEQ ID NO:42)
Method: as §1, §2, §3, §4, §5, §8, §9, §6, §7

[6] = test system: SoHPPD F39W, L367V, I375L (short); experiment: In vitro HPPD activity assay; assay type: biochemical, Scenedesmus obliquus; details: normalized on Arabidopsis wild-type HPPD (SEQ ID NO:42)
Method: as §1, §2, §3, §4, §5, §8, §9, §6, §7

SoHPPD H306K (short) = experiment: In vitro HPPD activity assay; assay type: biochemical, Scenedesmus obliquus; details: normalized on Arabidopsis wild-type HPPD (SEQ ID NO:42)
Method: as §1, §2, §3, §4, §5, §8, §9, §6, §7

SoHPPD I419V (short) = experiment: In vitro HPPD activity assay; assay type: biochemical, Scenedesmus obliquus; details: normalized on Arabidopsis wild-type HPPD (SEQ ID NO:42)
Method: as §1, §2, §3, §4, §5, §8, §9, §6, §7

SoHPPD I455V = experiment: In vitro HPPD activity assay; assay type: biochemical, Scenedesmus obliquus; details: normalized on Arabidopsis wild-type HPPD (SEQ ID NO:42)
Method: as §1, §2, §3, §4, §5, §8, §9, §6, §7

[7] = test system: SoHPPD K326E, E345Q (short); experiment: In vitro HPPD activity assay; assay type: biochemical, Scenedesmus obliquus; details: normalized on Arabidopsis wild-type HPPD (SEQ ID NO:42)
Method: as §1, §2, §3, §4, §5, §8, §9, §6, §7

[8] = test system: SoHPPD L367V, I375L (short); experiment: In vitro HPPD activity assay; assay type: biochemical, Scenedesmus obliquus; details: normalized on Arabidopsis wild-type HPPD (SEQ ID NO:42)
Method: as §1, §2, §3, §4, §5, §8, §9, §6, §7

SoHPPD L367V, I375L = experiment: In vitro HPPD activity assay; assay type: biochemical, Scenedesmus obliquus; details: normalized on Arabidopsis wild-type HPPD (SEQ ID NO:42)
Method: as §1, §2, §3, §4, §5, §8, §9, §6, §7

SoHPPD Q317H (short) = experiment: In vitro HPPD activity assay; assay type: biochemical, Scenedesmus obliquus; details: normalized on Arabidopsis wild-type HPPD (SEQ ID NO:42)
Method: as §1, §2, §3, §4, §5, §8, §9, §6, §7

[9] = test system: SoHPPD Q317H, A318G, E345Q (short); experiment: In vitro HPPD activity assay; assay type: biochemical, Scenedesmus obliquus; details: normalized on Arabidopsis wild-type HPPD (SEQ ID NO:42)
Method: as §1, §2, §3, §4, §5, §8, §9, §6, §7

[10] = test system: SoHPPD Q317H, A318G, E345Q; experiment: In vitro HPPD activity assay; assay type: biochemical, Scenedesmus obliquus; details: normalized on Arabidopsis wild-type HPPD (SEQ ID NO:42)
Method: as §1, §2, §3, §4, §5, §8, §9, §6, §7

SoHPPD Q317H = experiment: In vitro HPPD activity assay; assay type: biochemical, Scenedesmus obliquus; details: normalized on Arabidopsis wild-type HPPD (SEQ ID NO:42)
Method: as §1, §2, §3, §4, §5, §8, §9, §6, §7

SoHPPD Q317M (short) = experiment: In vitro HPPD activity assay; assay type: biochemical, Scenedesmus obliquus; details: normalized on Arabidopsis wild-type HPPD (SEQ ID NO:42)
Method: as §1, §2, §3, §4, §5, §8, §9, §6, §7

SoHPPD V251A (short) = experiment: In vitro HPPD activity assay; assay type: biochemical, Scenedesmus obliquus; details: normalized on Arabidopsis wild-type HPPD (SEQ ID NO:42)
Method: as §1, §2, §3, §4, §5, §8, §9, §6, §7

Scenedesmus HPPD (Seq ID: 2), sequence (A0A383WMN4 entry or part of it N195D): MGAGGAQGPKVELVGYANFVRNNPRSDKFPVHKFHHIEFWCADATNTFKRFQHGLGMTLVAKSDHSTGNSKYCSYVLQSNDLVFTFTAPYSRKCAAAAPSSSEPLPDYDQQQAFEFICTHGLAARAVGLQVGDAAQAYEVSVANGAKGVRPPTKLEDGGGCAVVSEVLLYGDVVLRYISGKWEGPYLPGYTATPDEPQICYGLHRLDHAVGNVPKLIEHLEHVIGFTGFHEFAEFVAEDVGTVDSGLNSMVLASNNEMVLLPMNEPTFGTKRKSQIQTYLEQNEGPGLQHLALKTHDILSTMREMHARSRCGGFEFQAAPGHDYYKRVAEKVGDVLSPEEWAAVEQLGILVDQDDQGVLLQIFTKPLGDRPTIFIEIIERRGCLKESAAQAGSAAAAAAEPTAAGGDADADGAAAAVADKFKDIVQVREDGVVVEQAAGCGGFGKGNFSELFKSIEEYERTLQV
Scenedesmus Short HPPD (Seq ID: 4), sequence (A0A383WMN4 entry or part of it N195D/DEL398-433): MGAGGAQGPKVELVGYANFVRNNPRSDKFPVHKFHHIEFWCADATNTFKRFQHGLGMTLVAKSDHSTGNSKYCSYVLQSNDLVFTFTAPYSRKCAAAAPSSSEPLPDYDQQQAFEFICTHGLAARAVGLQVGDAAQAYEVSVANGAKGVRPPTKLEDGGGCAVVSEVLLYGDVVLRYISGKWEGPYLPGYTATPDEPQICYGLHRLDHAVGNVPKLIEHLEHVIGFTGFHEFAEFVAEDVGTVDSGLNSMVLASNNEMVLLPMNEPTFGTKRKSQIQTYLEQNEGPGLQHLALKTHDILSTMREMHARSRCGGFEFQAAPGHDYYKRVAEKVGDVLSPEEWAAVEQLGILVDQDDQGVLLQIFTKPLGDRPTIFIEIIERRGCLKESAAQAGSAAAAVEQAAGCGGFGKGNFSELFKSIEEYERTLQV

`CC[S+]([O-])c1c(Cl)cc(F)c(C(=O)Nc2nnnn2C)c1Cl` (centres unmarked) [Inhibitor 9, 2,4-dichloro-3-ethylsulfinyl-6-fluoro-N-(1-methyltetrazol-5-yl)benzamide] was tested, and the “TI (normalized tolerance index)” value [1] was 1.0, the “TI (normalized tolerance index)” value [2] was 0.1 and the “TI (normalized tolerance index)” value [3] was 1.2. The “TI (normalized tolerance index)” value [4] was 0.7, the “TI (normalized tolerance index)” value [5] was 1.2 and the “TI (normalized tolerance index)” value (SoHPPD A318R, L350M) was 0.2. The “TI (normalized tolerance index)” value (SoHPPD E345Q (short)) was 0.2, the “TI (normalized tolerance index)” value (SoHPPD E379Q (short)) was 0.2 and the “TI (normalized tolerance index)” value (SoHPPD F363I (short)) was “not inhibited; also recorded: no inhi-”. The “TI (normalized tolerance index)” value (SoHPPD F363I) was 2,7, the “TI (normalized tolerance index)” value [6] was 0.2 and the “TI (normalized tolerance index)” value (SoHPPD H306K (short)) was 0.2. For the same molecule, the “TI (normalized tolerance index)” value (SoHPPD I419V (short)) was 0.3, the “TI (normalized tolerance index)” value (SoHPPD I455V) was 0.4 and the “TI (normalized tolerance index)” value [7] was 0.1. The “TI (normalized tolerance index)” value [8] was 0.4, the “TI (normalized tolerance index)” value (SoHPPD L367V, I375L) was 0.1 and the “TI (normalized tolerance index)” value (SoHPPD Q317H (short)) was 0.7. The “TI (normalized tolerance index)” value [9] was 0.9, the “TI (normalized tolerance index)” value [10] was 0.1 and the “TI (normalized tolerance index)” value (SoHPPD Q317H) was 0.1. For the same molecule, the “TI (normalized tolerance index)” value (SoHPPD Q317M (short)) was 1.1 and the “TI (normalized tolerance index)” value (SoHPPD V251A (short)) was 0.1.
